Here are results for 3 molecules from publication PMC9139979, “Features of ZED1227: The First-In-Class Tissue Transglutaminase Inhibitor Undergoing Clinical Evaluation for the Treatment of Celiac Disease” (Cells, 2022).

The target in one experiment is T1, hTG2 (Homo sapiens, UniProt P21980).
T1 construct: purchased Zedira T022
T1 sequence (P21980 1-687): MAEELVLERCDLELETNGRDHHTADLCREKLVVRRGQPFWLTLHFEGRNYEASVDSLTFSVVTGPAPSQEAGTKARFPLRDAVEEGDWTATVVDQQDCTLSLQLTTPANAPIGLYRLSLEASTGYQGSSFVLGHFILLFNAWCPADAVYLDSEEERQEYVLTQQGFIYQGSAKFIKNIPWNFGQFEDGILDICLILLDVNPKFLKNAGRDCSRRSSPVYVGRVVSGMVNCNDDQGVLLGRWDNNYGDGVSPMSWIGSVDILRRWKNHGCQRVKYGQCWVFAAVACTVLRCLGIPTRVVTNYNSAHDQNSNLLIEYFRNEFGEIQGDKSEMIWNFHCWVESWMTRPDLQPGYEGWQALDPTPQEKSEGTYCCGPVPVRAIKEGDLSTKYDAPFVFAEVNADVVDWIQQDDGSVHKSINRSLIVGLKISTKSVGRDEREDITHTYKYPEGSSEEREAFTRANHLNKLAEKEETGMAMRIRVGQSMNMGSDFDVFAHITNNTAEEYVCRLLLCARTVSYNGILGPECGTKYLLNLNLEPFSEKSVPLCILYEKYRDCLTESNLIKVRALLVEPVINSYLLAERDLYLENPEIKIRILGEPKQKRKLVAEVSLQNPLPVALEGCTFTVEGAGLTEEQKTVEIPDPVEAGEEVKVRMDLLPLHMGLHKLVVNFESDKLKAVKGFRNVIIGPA
The experiment is described as follows: Fluorescent transamidation assay (DCC-assay), hTG2. Type of experiment: biochemical. The settings on record: for IC50: recombinant human TG2, transamidation assay, apparent IC50 of irreversible inhibitor, read-out: App. IC50 hTG2; for Fold less potent compared to ZED1227 (hTG2): same transamidation assay. As for the experimental part:
Inhibition data were determined using the fluorescent transamidation assay (dansylcadaverine incorporation into glutamine-donor substrate N,N-dimethyl casein, DCC-assay). Briefly, to 15 μL of ZED1227 solution (dissolved and serial diluted in 2% (v/v) DMSO/assay buffer), 285 μL assay buffer [47.5 mM tris(hydroxymethyl)aminomethane, 9.5 mM CaCl2, 9.5 mM glutathione, 2.4% (v/v) glycerol, 190 mM NaCl, pH 8.0] containing dansylcadaverine (15.9 μM), N,N-dimethyl casein (3.8 μM) and the indicated recombinant transglutaminase enzyme [0.95 μg/mL hTG1 (T035), 0.81 μg/mL hTG2 (T022), 0.83 μg/mL hTG6 (T021), all from Zedira] were added, mixed and the kinetic measurement started immediately. In the case of hFXIII-A2 (0.83 μg/mL, T027, Zedira), the assay buffer contained human α-thrombin (5.2 × 10^−3 U/μL, T056, Zedira). The mixture was incubated for 20 min at room temperature to activate FXIII. In the case of hTG3a (0.81 μg/mL, T013, Zedira), full enzymatic activity was obtained by incubation for 80 min at 37 °C in assay buffer before addition of the inhibitor and start of the kinetics.
Fluorescence emission was continuously monitored for 30 min at λem = 500 nm (λex = 330 nm) and 37 °C using a CLARIOstar fluorescence plate reader (BMG Labtech, Ortenberg, Germany). All measurements were performed in triplicate. The respective IC50 (and IC90 for TG2) values were calculated by non-linear regression using the MARS software package (BMG Labtech). An irreversible-acting inhibitor, such as ZED1227, should, correctly, be characterized by the second-order rate constant k2nd, as detailed by Keillor [46]. However, such data are rather abstract and difficult to comprehend.
To facilitate comparability during lead structure optimization and to roughly estimate concentrations needed at the target site, the apparent IC50 values (calculated by four-parameter non-linear fit by MARS software) for irreversible inhibitors are more instructive and are therefore reported. Further, we report the potency of commercially available reference inhibitors Z006 (“Z-DON”), Z013 (ZED754), and T101 (all Zedira). To gain deeper mechanistic insight, we discuss the second-order rate constants (k2nd) published for Z006 and ZED754 in relation to their respective IC50 values.

For the next experiment, the target named is TG2. On the set-up: method as in PMID 32045569. Conditions: TG2 catalyzed hydrolysis of Z-Glu(HMC)-Gly-OH at pH 6.5; cited from earlier work.

Square brackets hold non-standard residues; d marks the D form. Peptide text beside a SMILES is read from it. * marks the point of attachment. Nle(5E-ene,6-CO2Et) = CCOC(=O)/C=C/CC[C@H](N)C(=O)O; DON = [N-]=[N+]=CC(=O)CC[C@H](N)C(=O)O; Cbz = O=C(OCc1ccccc1)*

What is called IC50 is the concentration needed to halve the response being measured. For the molecule `CC(=O)CSc1n(C)c(C)c(C)[n+]1C.[Cl-]` [T101], on hTG2, the IC50 was 1.78 µM and the “Fold less potent compared to ZED1227 (hTG2)” value is 33 fold.

For orientation: Ki means the equilibrium dissociation constant of an inhibitor or competing ligand from its target. Turning to `COC(=O)[C@H](CC(C)C)NC(=O)[C@@H]1CCCN1C(=O)[C@@H](NC(=O)[C@H](CCC(=O)C=[N+]=[N-])NC(=O)OCc1ccccc1)C(C)C` [Z006, Z-DON-Val-Pro-Leu-OMe] (Cbz-[DON]VPL-OMe), the half-inhibitory concentration (IC50) on hTG2 is 0.07 µM. Further, at TG2, the Ki was 0.096 µM and the “k2nd (second-order rate constant)” value is on record as 191,000 M^−1s^−1.

In the case of `CCOC(=O)/C=C/CC[C@H](NC(=O)OCc1ccccc1)C(=O)N[C@@H](CCC(N)=O)C(=O)N1CCC[C@H]1C(=O)N[C@@H](CC(C)C)C(=O)OC` [ZED754] (Cbz-[Nle(5E-ene,6-CO2Et)]QPL-OMe), at hTG2, the IC50 was found to be 0.182 µM and the “Fold less potent compared to ZED1227 (hTG2)” value is “about 3.5 fold”. On TG2, the inhibition constant Ki was 0.45 µM and the “k2nd (second-order rate constant)” value is on record as 51,500 M^−1s^−1.
